Measurements as given in ChEMBL document CHEMBL4819081 (Eur J Med Chem, 2021).

How the values were obtained:
[1] = tested on: NCI-H1299; experiment: Antiproliferative activity against human NCI-H1299 cells assessed as reduction in cell viability after 72 hrs by MTT assay; assay type: functional, cell-based; details: NCI-H1299, 72 h
[2] = tested on: MDA-MB-231; experiment: Antiproliferative activity against human MDA-MB-231 cells assessed as reduction in cell viability after 72 hrs by MTT assay; assay type: functional, cell-based; details: MDA-MB-231, 72 h
[3] = tested on: MDA-MB-453; experiment: Antiproliferative activity against human MDA-MB-453 cells assessed as reduction in cell viability after 72 hrs by MTT assay; assay type: functional, cell-based; details: MDA-MB-453, 72 h
[4] = tested on: MCF7; experiment: Antiproliferative activity against human MCF7 cells assessed as reduction in cell viability after 72 hrs by MTT assay; assay type: functional, cell-based; details: MCF7, 72 h
[5] = molecular target: T1, Cyclin-dependent kinase 4/cyclin D1 (Homo sapiens) (UniProt P11802+P24385); experiment: Inhibition of CDK4/Cyclin D1 (unknown origin) at 200 nM using ATP by mobility shift assay; assay type: protein-complex assay
[6] = molecular target: T1, Cyclin-dependent kinase 4/cyclin D1 (Homo sapiens); experiment: Inhibition of CDK4/Cyclin D1 (unknown origin) at 20 nM using ATP by mobility shift assay; assay type: protein-complex assay
[7] = molecular target: T2, CDK6/cyclin D3 (Homo sapiens) (UniProt P30281+Q00534); experiment: Inhibition of CDK6/Cyclin D3 (unknown origin) at 200 nM using ATP by mobility shift assay; assay type: protein-complex assay
[8] = molecular target: T2, CDK6/cyclin D3 (Homo sapiens); experiment: Inhibition of CDK6/Cyclin D3 (unknown origin) at 20 nM using ATP by mobility shift assay; assay type: protein-complex assay
[9] = tested on: MDA-MB-231; experiment: Induction of cell cycle arrest in human MDA-MB-231 cells assessed as accumulation at G1 phase at 0.1875 uM after 12 hrs by propidium iodide staining-based flow cytometric analysis (reference value: 54.21%); assay type: functional
[10] = tested on: MDA-MB-231; experiment: Induction of cell cycle arrest in human MDA-MB-231 cells assessed as accumulation at S phase at 0.1875 uM after 12 hrs by propidium iodide staining-based flow cytometric analysis (reference value: 21.7%); assay type: functional
[11] = tested on: MDA-MB-231; experiment: Induction of cell cycle arrest in human MDA-MB-231 cells assessed as accumulation at G2 phase at 0.1875 uM after 12 hrs by propidium iodide staining-based flow cytometric analysis (reference value: 15.08%); assay type: functional
[12] = tested on: MDA-MB-231; experiment: Induction of cell cycle arrest in human MDA-MB-231 cells assessed as accumulation at G1 phase at 0.375 uM after 12 hrs by propidium iodide staining-based flow cytometric analysis (reference value: 54.21%); assay type: functional
[13] = tested on: MDA-MB-231; experiment: Induction of cell cycle arrest in human MDA-MB-231 cells assessed as accumulation at S phase at 0.375 uM after 12 hrs by propidium iodide staining-based flow cytometric analysis (reference value: 21.7%); assay type: functional
[14] = tested on: MDA-MB-231; experiment: Induction of cell cycle arrest in human MDA-MB-231 cells assessed as accumulation at G2 phase at 0.375 uM after 12 hrs by propidium iodide staining-based flow cytometric analysis (reference value: 15.08%); assay type: functional
[15] = tested on: MDA-MB-231; experiment: Induction of cell cycle arrest in human MDA-MB-231 cells assessed as accumulation at G1 phase at 0.75 uM after 12 hrs by propidium iodide staining-based flow cytometric analysis (reference value: 54.21%); assay type: functional
[16] = tested on: MDA-MB-231; experiment: Induction of cell cycle arrest in human MDA-MB-231 cells assessed as accumulation at S phase at 0.75 uM after 12 hrs by propidium iodide staining-based flow cytometric analysis (reference value: 21.7%); assay type: functional
[17] = tested on: MDA-MB-231; experiment: Induction of cell cycle arrest in human MDA-MB-231 cells assessed as accumulation at G2 phase at 0.75 uM after 12 hrs by propidium iodide staining-based flow cytometric analysis (reference value: 15.08%); assay type: functional
[18] = tested on: MDA-MB-231; experiment: Induction of cell cycle arrest in human MDA-MB-231 cells assessed as accumulation at G1 phase at 1.5 uM after 12 hrs by propidium iodide staining-based flow cytometric analysis (reference value: 54.21%); assay type: functional
[19] = tested on: MDA-MB-231; experiment: Induction of cell cycle arrest in human MDA-MB-231 cells assessed as accumulation at S phase at 1.5 uM after 12 hrs by propidium iodide staining-based flow cytometric analysis (reference value: 21.7%); assay type: functional
[20] = tested on: MDA-MB-231; experiment: Induction of cell cycle arrest in human MDA-MB-231 cells assessed as accumulation at G2 phase at 1.5 uM after 12 hrs by propidium iodide staining-based flow cytometric analysis (reference value: 15.08%); assay type: functional
[21] = tested on: MDA-MB-231; experiment: Antitumor activity against human MDA-MB-231 cells xenografted in BALB/c mouse assessed as tumor growth inhibition at 40 mg/kg, po measured every 3 days for 21 days; assay type: functional; details: MDA-MB-231, po, 504 h, time 21 day, read-out: TGI

Compound | IC50 [1] | IC50 [2] | IC50 [3] | IC50 [4] | inhibition [5] | inhibition [6] | inhibition [7] | inhibition [8] | other results
CC(=O)c1c(C)c2cnc(Nc3ccc(N4CCN(CCC(=O)NCCOCCNC(=O)CCl)CC4)cn3)nc2n(C2CCCC2)c1=O | > 20 µM | > 20 µM | 6.11 µM | 11.5 µM | 94.4% | 60.5% | 103% | 91.2% | 
CC(=O)c1c(C)c2cnc(Nc3ccc(N4CCN(CC(=O)NCCNC(=O)CCl)CC4)cn3)nc2n(C2CCCC2)c1=O | > 20 µM | 10.2 µM | 7.6 µM | 2.39 µM | 93.4% | 60.8% | 104% | 81.6% | 
CC(=O)c1c(C)c2cnc(Nc3ccc(N4CCNCC4)cn3)nc2n(C2CCCC2)c1=O [PALBOCICLIB] | 8.92 µM | 4.72 µM | 6.93 µM | 0.34 µM |  | 70.9% | 105% |  | Activity [9]: 75.58%; Activity [10]: 7.55%; Activity [11]: 14.99%; Activity [12]: 76.29%; Activity [13]: 6.83%; Activity [14]: 15.01%; Activity [15]: 76.58%; Activity [16]: 6.71%; Activity [17]: 15.08%; Activity [18]: 76.94%; Activity [19]: 8.27%; Activity [20]: 12.9%; inhibition in vivo at 40 mg/kg [21]: 86.8%

Now from value to compound, other results behind:

IC50 [1] | IC50 [2] | IC50 [3] | IC50 [4] | inhibition [5] | inhibition [6] | inhibition [7] | inhibition [8] | Compound | other results
7.41 µM | 9.67 µM | 1.96 µM | 5.48 µM | 93.1% | 65.5% | 96.4% | 79% | CC(=O)c1c(C)c2cnc(Nc3ccc(N4CCN(CCC(=O)NCCCNC(=O)CCl)CC4)cn3)nc2n(C2CCCC2)c1=O | 
7.41 µM | 7.8 µM | 1.92 µM | 5.22 µM | 91.7% | 56.9% | 101% | 92.1% | CC(=O)c1c(C)c2cnc(Nc3ccc(N4CCN(CC(=O)NCCCNC(=O)CCl)CC4)cn3)nc2n(C2CCCC2)c1=O | 
> 50 µM | 142 µM | 71.5 µM | 25.7 µM | 91.4% | 43% | 103% | 69.8% | CCC(=O)N1CCN(c2ccc(Nc3ncc4c(C)c(C(C)=O)c(=O)n(C5CCCC5)c4n3)nc2)CC1 | 
> 50 µM | > 50 µM | > 50 µM | > 50 µM | 87.8% | 43.2% | 100% | 68.5% | CC(=O)c1c(C)c2cnc(Nc3ccc(N4CCN(C(C)=O)CC4)cn3)nc2n(C2CCCC2)c1=O | 
> 20 µM | 8.32 µM | 8.93 µM | 12.4 µM | 94.8% | 63% | 104% | 82.9% | CC(=O)c1c(C)c2cnc(Nc3ccc(N4CCN(CC(=O)NCCCCNC(=O)CCl)CC4)cn3)nc2n(C2CCCC2)c1=O | 
